This is an account of results in US20230234936A1, “COMPOUND FOR TARGETING AND DEGRADING PROTEIN, AND PREPARATION METHOD THEREFOR AND USE THEREOF” (SHANGHAI LEADINGTAC PHARMACEUTICAL CO., LTD., priority 2020, published 2023).

The target of assay [1] is T1, IRAK4 protein in THP-1 cells (Homo sapiens, UniProt Q9NWZ3).
T1 construct: endogenous in cells; host or cells: THP-1
T1 sequence (Q9NWZ3 1-460): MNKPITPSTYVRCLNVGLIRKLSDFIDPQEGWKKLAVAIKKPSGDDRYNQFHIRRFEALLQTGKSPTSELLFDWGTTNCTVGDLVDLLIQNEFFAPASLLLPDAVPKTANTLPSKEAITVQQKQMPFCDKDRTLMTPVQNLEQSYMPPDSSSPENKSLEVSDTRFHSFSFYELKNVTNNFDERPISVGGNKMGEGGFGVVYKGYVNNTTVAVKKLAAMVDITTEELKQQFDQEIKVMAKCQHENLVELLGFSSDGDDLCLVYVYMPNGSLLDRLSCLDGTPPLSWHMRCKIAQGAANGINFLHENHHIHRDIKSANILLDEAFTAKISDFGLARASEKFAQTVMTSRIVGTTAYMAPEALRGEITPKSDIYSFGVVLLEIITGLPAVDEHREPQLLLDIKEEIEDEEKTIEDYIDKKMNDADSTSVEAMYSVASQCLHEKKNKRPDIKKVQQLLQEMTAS
The assay is described as follows: Degradation of IRAK4 in THP-1 cells (Western blot). The conditions noted are these: 24 hours, compound 1-3000 nM. Type of assay: cell-based. In short, it runs like this:
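THP-1 cells (5×10^5/well) treated 24 h with compound at 1–3000 nM final. IRAK4 in lysates quantified by Western blot, normalized to internal reference and compared with control to give degradation rate; DC50 and Dmax from nonlinear fit of log concentration.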
A general note: A western blot detects proteins with antibodies after separation by electrophoresis.

In a further assay the target is T2, IKZF3 in L363 cells (Homo sapiens, UniProt Q96SW2+Q9UKT9).
T2 construct: endogenous in cells; host or cells: L363
The assay is described as follows: Degradation of IKZF3 in L363 cells (Western blot). The note with it: 1000 nM, 16 hours. Type of assay: cell-based. Here is the method: (§1) The 24-well cell culture plate was inoculated with 0.95 mL L363 cells (Nanjing Co-bioer) per well with a cell density of 6×10^5 cells/well. The cell plate was placed in a 5% carbon dioxide incubator and cultured at 37° C. for 8 hours, then 50 μL of compound solution was added. The final concentration of the compound was 1000 nM. After continuing to culture for 16 hours, the cells were collected into a 1.5 mL centrifuge tube and centrifuged at 3000 rpm and 4° C. for 5 minutes. Cell precipitation was cleaned twice with 1×DPBS, resuspended cells were lysed with 100 μL lysate (cell lysate was Western and IP cell lysate (Beyotime), supplemented with 1 mM mixture of phenylmethylsulfonyl fluoride and protease inhibitor (Beyotime)), left on ice for 30 minutes, then centrifuged at 14000 g at 4° C. for 10 minutes, and the supernatant was taken to detect IKZF1 and IKZF3 protein level by Western blot.
(§2) The total protein concentration in the supernatant of cell lysis was determined by BCA protein quantitative kit (Tiangen). According to the concentration of total protein detected by BCA, the supernatant was adjusted to 0.2 μg/μL with PBS and 5× SDS-PAGE protein loading buffer (Beyotime), bathed in water at 100° C. for 10 minutes, then placed in ice bath for 5 minutes, centrifuged at 14000 g and 4° C. for 5 minutes, and then collected as WB loading sample. Prefabricated glue (KeyGEN) was used for protein electrophoresis with a loading amount of 10 μL (total protein 2 μg). After Tris-MOPS-SDS electrophoresis solution (Adamas), 120V constant pressure electrophoresis was performed. After electrophoresis, the protein on the adhesive strip was transferred to PVDF membrane with a constant current of […] for 50 minutes. After the membrane was transferred, the membrane was incubated in 5% bovine serum albumin solution for 2 hours at room temperature. After blocking, PVDF membranes were incubated with IKZF1 primary antibody (CST) and IKZF3 primary antibody (Abcam) overnight at 4°, the membranes were washed with TBST buffer (2.4 g Tris, 8.8 g NaCl, 1.5 mL Tween 20, pH adjusted to 7.4, constant volume to IL) for 30 minutes, incubated with secondary antibody (Abcam) for 2 hours at room temperature, finally incubated with Clarity Western ECL Substrate(BIO-RAD) for 5 minutes for luminescence development, chemiluminescence imaging system (Clinx, chemiScope 6200 Touch) for development and protein mapping photography. The protein map was analyzed by Clinx chemiluminescence analysis software for grayscale values. Using the formula: grayscale correction value=(target protein grayscale value/corresponding internal reference grayscale value)×10^3, the grayscale correction value of each sample was calculated. The degradation rate was calculated by comparing with the grayscale correction value of the control group.

In another assay the target is T3, IRAK4 kinase (Homo sapiens, UniProt Q9NWZ3).
T3 sequence (Q9NWZ3 1-460): T1 sequence (Q9NWZ3 1-460)
The experiment in a line: IRAK4 kinase activity test (KinEASE-STK S1 HTRF kit). Type of assay: biochemical. The note with it: 2.5 nM kinase, 1 μM biotinylated polypeptide substrate, 7 μM ATP, 37° C. 120 min. In short, it runs like this:
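Compound in DMSO, serially diluted to 10000–0.038 nM final, incubated with 2.5 nM kinase, 1 μM biotinylated peptide substrate and 7 μM ATP at 37° C for 120 min. Eu-anti-phospho-Ser/Thr antibody plus streptavidin-XL665 stopped the reaction (1 h RT). HTRF 665/620 nm ratio gave % inhibition versus control; IC50 from nonlinear log-concentration fit.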
(In TR-FRET formats the signal depends on donor and acceptor labels being close together.)

For a further assay, the target named is T4, IKZF1 in L363 cells (Homo sapiens, UniProt Q13422+Q96SW2).
T4 construct: endogenous in cells; host or cells: L363
The experiment in a line: Degradation of IKZF1 in L363 cells (Western blot). Type of assay: cell-based. The conditions noted are these: 1000 nM, 16 hours. On the procedure:
as §1, §2

T4 sequence (Q13422 whole entry): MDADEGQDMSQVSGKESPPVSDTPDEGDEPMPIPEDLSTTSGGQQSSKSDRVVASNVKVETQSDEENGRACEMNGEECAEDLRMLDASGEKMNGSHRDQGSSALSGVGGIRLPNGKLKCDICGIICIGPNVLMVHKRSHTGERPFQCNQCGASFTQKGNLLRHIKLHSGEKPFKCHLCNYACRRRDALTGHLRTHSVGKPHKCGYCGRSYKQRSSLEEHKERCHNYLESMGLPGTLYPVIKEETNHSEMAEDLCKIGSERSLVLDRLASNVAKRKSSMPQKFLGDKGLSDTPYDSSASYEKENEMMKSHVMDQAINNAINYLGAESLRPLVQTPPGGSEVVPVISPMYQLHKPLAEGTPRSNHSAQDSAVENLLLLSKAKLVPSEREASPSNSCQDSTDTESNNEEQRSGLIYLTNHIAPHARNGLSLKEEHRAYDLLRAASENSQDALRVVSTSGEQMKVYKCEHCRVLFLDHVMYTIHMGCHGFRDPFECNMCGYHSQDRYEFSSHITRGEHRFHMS
T4 sequence (Q96SW2 whole entry): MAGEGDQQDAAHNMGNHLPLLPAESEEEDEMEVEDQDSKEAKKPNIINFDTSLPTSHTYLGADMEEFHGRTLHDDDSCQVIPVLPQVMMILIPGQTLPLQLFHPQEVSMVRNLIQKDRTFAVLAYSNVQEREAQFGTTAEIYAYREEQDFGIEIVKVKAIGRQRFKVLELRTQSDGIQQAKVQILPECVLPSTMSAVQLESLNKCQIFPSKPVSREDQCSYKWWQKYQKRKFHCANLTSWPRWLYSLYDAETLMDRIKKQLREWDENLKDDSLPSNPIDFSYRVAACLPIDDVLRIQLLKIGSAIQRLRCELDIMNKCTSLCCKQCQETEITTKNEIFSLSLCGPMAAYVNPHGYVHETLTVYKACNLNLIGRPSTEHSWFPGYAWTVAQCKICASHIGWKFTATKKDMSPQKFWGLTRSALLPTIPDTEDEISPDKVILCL
T4 sequence (Q16531 whole entry partner): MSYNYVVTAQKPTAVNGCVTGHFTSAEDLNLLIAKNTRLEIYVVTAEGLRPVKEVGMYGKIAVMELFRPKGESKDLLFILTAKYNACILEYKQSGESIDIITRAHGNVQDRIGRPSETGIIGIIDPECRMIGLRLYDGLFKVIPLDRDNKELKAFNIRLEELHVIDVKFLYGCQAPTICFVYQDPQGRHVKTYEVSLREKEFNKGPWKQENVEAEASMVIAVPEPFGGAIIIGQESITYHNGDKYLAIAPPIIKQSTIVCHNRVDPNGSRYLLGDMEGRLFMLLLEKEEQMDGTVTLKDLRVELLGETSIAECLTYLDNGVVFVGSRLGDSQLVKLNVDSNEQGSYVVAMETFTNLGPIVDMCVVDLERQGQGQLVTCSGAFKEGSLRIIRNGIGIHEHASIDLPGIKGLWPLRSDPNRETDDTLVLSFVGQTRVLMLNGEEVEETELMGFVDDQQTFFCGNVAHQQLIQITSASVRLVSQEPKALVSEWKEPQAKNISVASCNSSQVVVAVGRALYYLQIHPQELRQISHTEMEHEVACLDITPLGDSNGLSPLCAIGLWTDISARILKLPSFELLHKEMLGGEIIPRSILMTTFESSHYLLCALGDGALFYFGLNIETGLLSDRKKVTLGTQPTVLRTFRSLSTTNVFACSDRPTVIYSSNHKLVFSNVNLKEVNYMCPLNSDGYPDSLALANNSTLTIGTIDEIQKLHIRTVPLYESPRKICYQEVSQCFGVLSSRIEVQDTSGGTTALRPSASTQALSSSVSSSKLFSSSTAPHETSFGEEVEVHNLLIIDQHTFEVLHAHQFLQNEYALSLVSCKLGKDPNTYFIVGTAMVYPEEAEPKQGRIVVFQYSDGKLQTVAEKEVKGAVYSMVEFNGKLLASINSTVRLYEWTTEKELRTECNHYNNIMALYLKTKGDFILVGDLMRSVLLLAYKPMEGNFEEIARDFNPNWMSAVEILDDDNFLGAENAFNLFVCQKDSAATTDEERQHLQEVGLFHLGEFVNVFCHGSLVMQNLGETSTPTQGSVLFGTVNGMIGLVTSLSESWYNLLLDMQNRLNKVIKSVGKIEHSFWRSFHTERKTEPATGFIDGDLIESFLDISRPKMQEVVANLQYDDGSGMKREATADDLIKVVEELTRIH
T2 sequence (Q9UKT9 whole entry): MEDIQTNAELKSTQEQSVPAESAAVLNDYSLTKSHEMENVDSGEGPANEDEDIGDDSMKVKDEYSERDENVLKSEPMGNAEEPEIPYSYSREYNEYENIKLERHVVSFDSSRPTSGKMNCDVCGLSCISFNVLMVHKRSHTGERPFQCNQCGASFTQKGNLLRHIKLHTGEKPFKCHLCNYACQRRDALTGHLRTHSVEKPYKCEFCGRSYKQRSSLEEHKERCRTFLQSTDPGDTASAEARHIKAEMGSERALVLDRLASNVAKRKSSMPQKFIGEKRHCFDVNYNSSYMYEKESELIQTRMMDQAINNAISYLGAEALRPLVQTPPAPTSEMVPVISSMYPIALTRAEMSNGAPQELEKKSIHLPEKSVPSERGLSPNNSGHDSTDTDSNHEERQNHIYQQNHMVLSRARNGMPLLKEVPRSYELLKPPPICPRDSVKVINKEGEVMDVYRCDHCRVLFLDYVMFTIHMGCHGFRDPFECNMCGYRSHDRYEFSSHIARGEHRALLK
T2 sequence (Q96SW2 whole entry): as the sequence (Q96SW2 whole entry) above
T2 sequence (Q16531 whole entry partner): as the sequence (Q16531 whole entry partner) above

By DC50 is commonly meant the concentration at which degradation of the target reaches its halfway point. A low value points to degradation at low concentration. What is called Dmax is the greatest extent of degradation seen. A higher Dmax goes with deep degradation. By IC50 is commonly meant the midpoint of a concentration-inhibition curve. A high value points to weaker potency in that assay. In assay [1], `CC(C)(O)c1cc2nn(C3CCN(CCC4CCC5(CC4)CCN(C(=O)c4ccc(F)c(N6CCC(=O)NC6=O)c4)CC5)CC3)cc2cc1NC(=O)c1cccc(C(F)(F)F)n1` [Example 34, N-(2-(1-(2-(3-(3-(2,4-dioxotetrahydro-pyrimidin-1 (2H)-yl)-4-fluoro-benzoyl)-3-azaspiro[5.5]undec-9-yl)ethyl)piperidin-4-yl)-6-(2-hydroxyprop-2-yl)-2H-indazol-5-yl)-6-(trifluoro-methyl) pyridinecarbox-amide] yielded a DC50 of 2.5 nM and a Dmax of 98.1%. In addition, the IKZF3 degradation rate at IKZF3 in L363 cells is on record as −2.2 ± 2.8%. Further, it took 16.5 nM to reach half-maximal inhibition on IRAK4 kinase (IC50). The IKZF1 degradation rate at IKZF1 in L363 cells came to 10.2 ± 1.8%.
In assay [1], `CC(C)(O)c1cc2nn(C3CCN(CCC4CCC5(CC4)CCN(C(=O)c4ccc(F)c(C6CCC(=O)NC6=O)c4)CC5)CC3)cc2cc1NC(=O)c1cccc(C(F)(F)F)n1` (stereo not drawn) [Example 40, N-(2-(1-(2-(3-(3-(2,6-dioxopiperidin-3-yl)-4-fluoro-benzoyl)-3-azaspiro [5.5]undec-9-yl)ethyl)piperidin-4-yl)-6-(2-hydroxyprop-2-yl)-2H-indazol-5-yl)-6-(trifluoro-methyl) pyridinecarbox-amide] registered a DC50 of 4.8 nM and a Dmax of 98%. Also, the IKZF3 degradation rate at IKZF3 in L363 cells is listed as 9.8 ± 2.0%. Also, 35.1 nM corresponded to half-maximal inhibition on IRAK4 kinase (IC50). The compound also yielded an IKZF1 degradation rate at IKZF1 in L363 cells of 53.8 ± 2.0%.
For `Nc1cccc2c1C(=O)N(C1CCC(=O)NC1=O)C2=O` (stereo not drawn) [Pomalidomide], at IKZF3 in L363 cells, the IKZF3 degradation rate turned out to be 98.6 ± 0.6%. For the same compound, the IKZF1 degradation rate at IKZF1 in L363 cells is 99.7 ± 0.2%.
